Data set [1] in a line: Solubility noted during the cytotoxicity study. The following applies: cytotoxicity study limited because of it.
The target in data set [2] is T1, human recombinant CK2α1 (Homo sapiens, UniProt P68400).
T1 construct: purchased Promega V4482
Description: CK2 ADP-Glo kinase assay. In kind it is biochemical. The following applies: for Effect on CK2 activity in initial screening (in words): initial screening at 50 μM; for inhibition at 50 µM: read-out: CK2 Inhibition at 50 μM, m ± SD (%). The method, then:
Kinase activity was determined using the enzyme system CK2α1 (Promega V4482, Madison, WI, USA) and the ADP-Glo^TM kit (Promega V9101, Madison, WI, USA) in white 96-well plates (Nunc U96 Microwell 267350, Denmark). The reaction was carried out using 50 ng/well of N-GST labeled human recombinant CK2α1, 0.1 µg/µL bovine casein as a substrate, 10 μM ATP in 40 mM Tris buffer solution (pH 7.50) containing 20 mM MgCl2, 0.1 mg/mL of BSA, and 50 μM of DTT. Test compounds were added to 1.25% DMSO (final concentration 0.25%) and preincubated with kinase for 10 min. The reaction was carried out for 60 min at 25 °C in a thermostatically controlled PST-60HL shaker (Biosan. […], Latvia). ATP-dependent luminescence was measured at an integration time of 1000 ms using the Infinite M200 PRO microplate reader (Tecan. Austria). The ATP-competitive inhibitor Staurosporin (CAS 62996–74-1, Alfa Aesar J62837, 99+%) was used as a positive control. The experiments were performed in two parallels.
Background: ADP-Glo first removes unused ATP, then detects ADP through luciferase.

Data set [3] has as its system Hos cells. The experiment in a line: MTT test, osteosarcoma cells. In kind it is cell-based, human. Particulars: for Cytotoxicity index IC50 ± SE, Hos: MTT, 72 h incubation. The method, then: (§1) The studies were carried out on cultured cells of human glioblastoma (A-172, ATCC CRL 1620), human osteosarcoma (Hos, ATCC CRL 1543), human embryonic rhabdomyosarcoma (Rd, ATCC CRL 136), and human embryonic kidney 293 cells (Hek-293, ATCC CRL 1573) obtained from the Shared research facility “Vertebrate cell culture collection” (Institute of Cytology RAS, Saint-Petersburg, Russia). The cells were cultured using DMEM / F-12 medium containing 10% fetal bovine serum at 37°C, 5% CO2, and 98% humidity. Subculturing was performed using 0.25% trypsin solution when the culture reached ≥90% confluency.
(§2) The compounds were dissolved in DMSO. The solutions were diluted with DMEM/F-12 culture medium with 10% fetal bovine serum to the studied concentrations: 8, 16, 32, 64, 128, 256, 512, and 1024 µM. […] Cisplatin (cPt) was used as a positive control.
(§3) Cells were seeded in 96-well plates at a concentration of 4 × 10^3 cells per well. After 24 h, test compounds were added to the wells in a given concentration range. Then the cells were incubated for 72 h, after which a solution of MTT (3-(4,5-dimethyl-2-thiazolyl)-2,5-diphenyl-2H-tetrazolium bromide) was added to the cultures at 20 µL (5 mg/mL) to the well. After 2.5 h, the medium was removed from the wells and 200 µL of a mixture of DMSO/i-PrOH 1/1 was added. Optical density was measured on a plate spectrophotometer at a wavelength of 570 nm.
(§4) Statistical data processing was carried out in the RStudio program (Version 1.4.1106 © […] RStudio, PBC, Boston, MA, USA) using the R package (version 4.1.2). The cytotoxicity index (IC50) was calculated by plotting dose–response curves using the “drc” package.

The subject of data set [4] is A-172 cells. The experiment in a line: MTT test, glioblastoma cells. In kind it is cell-based, human. Particulars: for Cytotoxicity index IC50 ± SE, A-172: MTT, 72 h incubation. The method, then: as §1, §2, §3, §4
Background: Tetrazolium dyes change colour on reduction, which living cells bring about.

For data set [5], the system named is Hek-293 cells. Description: MTT test, human embryonic kidney cells. In kind it is cell-based. The following applies: 72 h incubation. Here is the method:
as §1, §2, §3, §4

Data set [6] relates to Rd cells. The experiment in a line: MTT test, embryonic rhabdomyosarcoma cells. In kind it is cell-based, human. Particulars: for Cytotoxicity index IC50 ± SE, Rd: MTT, 72 h incubation. The method, then:
as §1, §2, §3, §4

The subject of data set [7] is A-172, Rd, Hos and Hek-293 cells. Description: MTT test, all four cell lines together. In kind it is cell-based. The following applies: Homo sapiens, read-out: IC50 in all cases. Here is the method: as §1, §2
(§5) Cells were seeded in 96-well plates at a concentration of 4 × 10^3 cells per well. After 24 h, test compounds were added to the wells in a given concentration range. […] Optical density was measured on a plate spectrophotometer at a wavelength of 570 nm.
as §4

For data set [8], the system named is tumor cells A-172, Rd, and Hos. The experiment in a line: MTT test, tumor cell lines together. In kind it is cell-based. Particulars: Homo sapiens, A 172, MTT, across A-172, Rd, 50 µM bound holds 'mostly'. Here is the method:
as §1, §2, §5, §4

Where two headings read alike, the source gives them in different places. Some results are limits rather than exact numbers.

Eight molecules from PMC9415015, “CK2 Inhibition and Antitumor Activity of 4,7-Dihydro-6-nitroazolo[1,5-a]pyrimidines” (Molecules, 2022) can be followed below.

T1 sequence (P68400 whole entry): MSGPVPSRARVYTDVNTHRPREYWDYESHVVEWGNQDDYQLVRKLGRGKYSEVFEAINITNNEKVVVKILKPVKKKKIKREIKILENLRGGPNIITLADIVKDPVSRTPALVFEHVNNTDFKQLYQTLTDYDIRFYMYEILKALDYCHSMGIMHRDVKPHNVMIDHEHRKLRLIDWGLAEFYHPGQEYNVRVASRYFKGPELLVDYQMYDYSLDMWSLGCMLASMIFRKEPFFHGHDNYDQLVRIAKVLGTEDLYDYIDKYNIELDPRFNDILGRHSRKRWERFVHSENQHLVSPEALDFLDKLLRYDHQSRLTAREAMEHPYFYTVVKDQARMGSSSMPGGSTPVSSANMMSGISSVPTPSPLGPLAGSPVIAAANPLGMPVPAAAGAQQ

For `O=[N+]([O-])C1=CNc2ccnn2C1c1ccccc1` (stereo not drawn) [Compound 5a, 6-Nitro-7-phenyl-4,7-dihydropyrazolo[1,5-a]pyrimidine], the “Solubility (in words)” value in data set [1] was “low solubility”. The “Effect on CK2 activity in initial screening (in words)” value (shortened to “Effect on CK2 activity”) in [2] was “paradoxically enhance CK2 activity”.
The matching figures for `CC1=C([N+](=O)[O-])C(c2ccc([N+](=O)[O-])cc2)n2nccc2N1` (stereo not drawn) [Compound 5c, 6-Nitro-5-methyl-7-(4ʹ-nitrophenyl)-4,7-dihydropyrazolo[1,5-a]pyrimidine]: “low solubility” and “paradoxically enhance CK2 activity”.
On to `O=[N+]([O-])C1=CNc2ncnn2C1c1ccccc1` (stereo not drawn) [Compound 6a, 6-Nitro-7-phenyl-4,7-dihydro-1,2,4-triazolo[1,5-a]pyrimidine], for which, in [3], the “Cytotoxicity index IC50 ± SE, Hos” value is given as 542.85 ± 21.45 µM. In [4], the “Cytotoxicity index IC50 ± SE, A-172” value turned out to be 434.08 ± 18.02 µM. Further, in data set [2], the “Effect on CK2 activity” value is given as “paradoxically enhance CK2 activity”. Besides, the “Cytotoxicity index IC50 ± SE, Hek-293” value in data set [5] amounted to 1131.79 ± 77.86 µM. Besides, the “Cytotoxicity index IC50 ± SE, Rd” value in data set [6] came to 448.21 ± 22.53 µM. Further, the concentration for half-maximal inhibition (IC50) in [7] is more than 400 µM.
In the case of `CC1=C([N+](=O)[O-])C(c2ccccc2)n2nc(C(F)(F)F)nc2N1` (stereo not drawn) [Compound 6d, 5-Methyl-6-nitro-7-phenyl-2-trifluoromethyl-4,7-dihydro-1,2,4-triazolo[1,5-a]pyrimidine], the melting point fell in the range of 233 to 235 °C. Moreover, the “Cytotoxicity index IC50 ± SE, Hos” value in data set [3] came to 23.31 ± 1.84 µM. Further, the “Selectivity ratio SR (HOS)” value in data set [3] (normal/cancer cell (Hek-293 vs Hos)) was 2.1. In data set [8], this molecule gave a half-maximal inhibitory concentration (IC50) not above 50 µM. Further, in [4], the “Cytotoxicity index IC50 ± SE, A-172” value turned out to be 27.49 ± 1.67 µM. Moreover, in data set [4] (normal/cancer cell (Hek-293 vs A-172)), the “Selectivity ratio SR (A-172)” value was 1.8. Besides, the “Effect on CK2 activity” value in [2] was “paradoxically enhance CK2 activity”. For the same molecule, the “Cytotoxicity index IC50 ± SE, Hek-293” value in data set [5] came to 50.07 ± 4.43 µM. In addition, the “Cytotoxicity index IC50 ± SE, Rd” value in data set [6] came to 37.28 ± 3.77 µM. In addition, the “Selectivity ratio SR (RD)” value in data set [6] (normal/cancer cell (Hek-293 vs Rd)) was found to be 1.3.
As to `CCC1=C([N+](=O)[O-])C(c2ccc(O)c(OC)c2)n2ncc(C#N)c2N1` (stereo not drawn) [Compound 5j, 3-Cyano-5-Ethyl-6-nitro-7-(3ʹ-methoxy-4ʹ-hydroxyphenyl)-4,7-dihydropyrazolo[1,5-a]pyrimidine], the “Cytotoxicity index IC50 ± SE, Hos” value in data set [3] was found to be 522.38 ± 16.16 µM. Further, in [4], the “Cytotoxicity index IC50 ± SE, A-172” value is given as 566.09 ± 17.12 µM. Moreover, the “Cytotoxicity index IC50 ± SE, Hek-293” value in data set [5] is 581.39 ± 43.90 µM. In addition, the “Cytotoxicity index IC50 ± SE, Rd” value in data set [6] is 673.44 ± 20.70 µM. Moreover, the IC50 in data set [7] was more than 400 µM.
Turning to `CCC1=C([N+](=O)[O-])C(c2ccc(OC)cc2)n2ncc(C#N)c2N1` (stereo not drawn) [Compound 5i, 3-Cyano-5-ehtyl-6-Nitro-7-(4ʹ-metoxyphenyl)-4,7-dihydropyrazolo[1,5-a]pyrimidine], the melting point was 249 °C (dec.). In addition, the “Cytotoxicity index IC50 ± SE, Hos” value in data set [3] turned out to be 88.44 ± 5.85 µM. Besides, the “Cytotoxicity index IC50 ± SE, A-172” value in data set [4] is recorded as 145.19 ± 8.96 µM. For the same molecule, in [2] (50 μM compound, 10 μM ATP, n.a. = not active), the inhibition at 50 µM was found to be 3.66 ± 37.6%. For the same molecule, in [5], the “Cytotoxicity index IC50 ± SE, Hek-293” value was 69.52 ± 8.69 µM. Besides, the “Cytotoxicity index IC50 ± SE, Rd” value in data set [6] is 105.10 ± 10.70 µM.
Turning to `N#Cc1cnn2c1NC=C([N+](=O)[O-])C2c1ccccc1` (stereo not drawn) [Compound 5g, 3-Cyano-6-nitro-7-phenyl-4,7-dihydropyrazolo[1,5-a]pyrimidine], the “Cytotoxicity index IC50 ± SE, Hos” value in data set [3] stood at 181.14 ± 7.47 µM. For the same molecule, in [4], the “Cytotoxicity index IC50 ± SE, A-172” value worked out at 171.74 ± 8.63 µM. Also, the “Effect on CK2 activity” value in data set [2] was “paradoxically enhance CK2 activity”. Also, the “Cytotoxicity index IC50 ± SE, Hek-293” value in data set [5] stood at 483.09 ± 37.61 µM. Also, the “Cytotoxicity index IC50 ± SE, Rd” value in data set [6] was 149.72 ± 11.01 µM.
On to `CCC1=C([N+](=O)[O-])C(c2ccc([N+](=O)[O-])cc2)n2ncc(C#N)c2N1` (stereo not drawn) [Compound 5h, 3-Cyano-5-ehtyl-6-Nitro-7-(4ʹ-nitrophenyl)-4,7-dihydropyrazolo[1,5-a]pyrimidine], for which the “Cytotoxicity index IC50 ± SE, Hos” value in data set [3] was 234.97 ± 25.80 µM. The “Cytotoxicity index IC50 ± SE, A-172” value in data set [4] came to 323.41 ± 22.70 µM. Further, in data set [2], the IC50 is 59.5 µM, the “Effect on CK2 activity” value is recorded as “Moderate inhibition” and the inhibition at 50 µM was determined as 54.8 ± 0.87%. Besides, the “CK2 inhibitory potency in dose-response study (in words)” value in [2] (dose-response study) is listed as “micromolar CK2 inhibitors”. In addition, in [2] (dose-response study of CK2 inhibition), the “Hill Coefficient” value was −1.566. Moreover, the “Cytotoxicity index IC50 ± SE, Hek-293” value in data set [5] worked out at 153.47 ± 12.35 µM. For the same molecule, in data set [6], the “Cytotoxicity index IC50 ± SE, Rd” value is listed as 378.59 ± 20.39 µM.

One may read the IC50 as the concentration needed to halve the response being measured. By melting point is commonly meant the temperature of the solid-liquid transition. One may read the inhibition as how much of the control response was suppressed.
